In patent US11827628B2, “Compositions and methods for inhibition of the JAK pathway” (Rigel Pharmaceuticals, Inc., priority 2005, dated 2023):

How the values were obtained:
[1] = system: IL-4 stimulated expression of CD23 in human Ramos B cells (JAK-1 and JAK-3); assay: Assay for Ramos B-Cell Line Stimulated with IL-4 (CD23 upregulation, FACS); format: cell-based; conditions: Homo sapiens, Ramos, Ramos B cells stimulated with IL-4, CD23 expression by FACS; read-out: IC50, Example 41
How it was run: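 Human Ramos B cells in RPMI with 5% serum were pre-incubated with compound or DMSO for 1 h at 37 °C, then stimulated with IL-4 at a final 50 units/mL for 20-24 h. CD23 upregulation was measured by anti-CD23-PE staining and flow cytometry, and IC50 values were calculated.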

[2] = system: up-regulation of ICAM-1 (CD54) by IFNγ in U937 human monocytic cells; assay: U937 IFNγ ICAM1 FACS Assay; format: cell-based; conditions: Homo sapiens, U-937, U937 cells stimulated with IFNγ, ICAM-1 expression by FACS; read-out: IC50, Example 44
Description: The activity of the compounds of the invention may additionally be characterized by assaying the effect of the 2,4-substituted pyrimidinediamine compounds described herein on A549 lung epithelial cells and U937 cells. A549 lung epithelial cells and U937 cells up-regulate ICAM-1 (CD54) surface expression in response to a variety of different stimuli. Therefore, using ICAM-1 expression as readout, test compound effects on different signaling pathways can be assessed in the same cell type. Stimulation with IL-1β through the IL-1β receptor activates the TRAF6/NFκB pathway resulting in up-regulation of ICAM-1. IFNγ induces ICAM-1 up-regulation through activation of the JAK1/JAK2 pathway. The up-regulation of ICAM-1 can be quantified by flow cytometry across a compound dose curve and EC50, values are calculated.
U937 human monocytic cells up-regulate ICAM-1 (CD54) surface expression in response to a variety of different stimuli. Therefore, using ICAM-1 expression as readout, compound effects on different signaling pathways can be assessed in the same cell type. IFNγ up-regulates ICAM-1 through activation of the JAK/Stat pathway. In this example, the up-regulation of ICAM-1 by IFNγ was assessed.
The U937 human monocytic cell line was obtained from ATCC of Rockville Maryland, catalog number CRL-1593.2, and cultured in RPM1-1640 medium containing 10% (v/v) FCS. U937 cells were grown in 10% RPMI. The cells were then plated at a concentration of 100,000 cells per 160 μL in 96 well flat bottom plates. […] Then 4 μL of test compound was transferred to 76 μL of 10% RPMI resulting in a 10× solution (100 μM test compound, 5% DMSO). For control wells, 4 μL of DMSO was diluted into 76 μL 10% RPMI.
The assay was performed in duplicate with 8 points (8 3-fold dilution concentrations from […]) and with 4 wells of DMSO only (control wells) under stimulated conditions and 4 wells of DMSO only under unstimulated conditions.
The diluted compound plate was mixed 2× using a multimek (Beckman Coulter of Brea, California) and then 20 μL of the diluted compounds was transferred to the 96 well plate containing 160 μL of cells, which were then mixed again twice at low speeds. The cells and compounds were then pre-incubated for 30 minutes at 37° C. with 5% CO2.
The 10× stimulation mix was made by preparing a 100 ng/mL solution of human IFNγ in 10% RPMI. […] The cells were kept under conditions for stimulation for 18-24 hours at 37° C. with 5% CO2.
The cells were transferred to a 96 well round bottom plate for staining and then kept on ice for the duration of the staining procedure. Cells were spun down at 1000 rpm for 5 minutes at 4° C., following which the supernatant was removed. Following removal of the supernatant, 1 μL APC conjugated mouse anti-human ICAM-1 antibody was added per 100 μL FACS buffer. The cells were then incubated on ice in the dark for 30 minutes. Following incubation, […] of FACS buffer was added and the cells were centrifuged at 1000 rpm for 5 minutes at 4° C., following which the supernatant was removed. After removal of the supernatant, 200 μL of FACS buffer was added and the cells were resuspended. After suspension, the cells were centrifuged at 1000 rpm for 5 min at 4° C. Supernatant was then removed prior to resuspension of the cells in 150 μL FACS buffer.
Detection was performed using a BD LSR I System Flow Cytometer, purchased from BD Biosciences of San Jose, California The live cells were gated for live scatter and the geometric mean of ICAM-APC was measured (Becton-Dickinson CellQuest software version 3.3, Franklin Lakes, NJ). Both % live cells and ICAM-1 expression was analyzed. The assays for the test compounds were carried out in parallel with a control compound of known activity.

| SMILES | IC50 [1] | IC50 [2] |
| --- | --- | --- |
| NS(=O)(=O)c1cccc(Nc2ncc(F)c(Nc3ccc(C(F)(F)F)cc3)n2)c1 [VI-51, N2-(3-Aminosulfonylphenyl)-5-fluoro-N4-(4-trifluoromethylphenyl)-2,4-pyrimidinediamine] | 0.152 µM | 2.13 µM |
| COc1ccc(Nc2nc(Nc3cc(Cl)c(C)c(S(N)(=O)=O)c3)ncc2F)cc1Cl [VI-13, N2-(3-Aminosulfonyl-5-chloro-4-methylphenyl)-N4-(3-chloro-4-methoxyphenyl)-5-fluoro-2,4-pyrimidinediamine] | 0.0965 µM | 1.39 µM |
| Cc1cc(Nc2ncc(F)c(Nc3ccc(OC(F)(F)F)c(Cl)c3)n2)cc(S(N)(=O)=O)c1Cl [VI-18, N2-(3-Aminosulfonyl-4-chloro-5-methylphenyl)-N4-(3-chloro-4-trifluoromethoxyphenyl)-5-fluoro-2,4-pyrimidinediamine] | 0.257 µM | 6.06 µM |
| COc1ccc(Nc2nc(Nc3cccc(S(N)(=O)=O)c3)ncc2F)cc1Cl [VI-107, N2-(3-Aminosulfonylphenyl)-5-fluoro-N4-(4-methoxy-3-chlorophenyl]-2,4-pyrimidinediamine] | 0.159 µM | 0.856 µM |
| C=Cc1ccc(Nc2nc(Nc3ccc(C)c(S(N)(=O)=O)c3)ncc2F)cc1 [VI-54, N2-(3-Aminosulfonyl-4-methylphenyl)-5-fluoro-N4-(4-vinylphenyl)-2,4-pyrimidinediamine] | 0.147 µM | 1.62 µM |
| Cc1ccc(Nc2ncc(F)c(Nc3cccc(-c4cnco4)c3)n2)cc1S(N)(=O)=O [IV-2, N2-(3-Aminosulfonyl-4-methylphenyl)-5-fluoro-N4-[3-(1,3-oxazol-5-yl)phenyl]-2,4-pyrimidinediamine] | 0.08 µM | 0.705 µM |
| C#CCOc1ccc(Nc2nc(Nc3ccc(Cl)c(S(N)(=O)=O)c3)ncc2F)cc1 [VI-55, N2-(3-Aminosulfonyl-4-chlorophenyl)-5-fluoro-N4-[4-(prop-2-ynyloxy)phenyl]-2,4-pyrimidinediamine] | 0.122 µM | 1.37 µM |
| Cc1ccc(Nc2ncc(F)c(Nc3ccc4sccc4c3)n2)cc1S(N)(=O)=O [VII-57, N2-(3-Aminosulfonyl-4-methylphenyl)-N4-(benzothiophen-5-yl)-5-fluoro-2,4-pyrimidinediamine] | 0.107 µM | 0.735 µM |
| C#CCOc1ccc(Nc2nc(Nc3ccc(C)c(S(N)(=O)=O)c3)ncc2F)cc1F [VI-60, N2-(3-Aminosulfonyl-4-methylphenyl)-5-fluoro-N4-[3-fluoro-4-(prop-2-ynyloxy)phenyl]-2,4-pyrimidinediamine] | 0.0869 µM | 0.41 µM |
| COc1ccc(Nc2nc(Nc3ccc(C(C)C)c(S(N)(=O)=O)c3)ncc2F)cc1Cl [VI-45, N2-(3-Aminosulfonyl-4-iso-propylphenyl)-N4-(3-chloro-4-methoxy-phenyl)-5-fluoro-2,4-pyrimidinediamine] | 0.108 µM |  |
| NS(=O)(=O)c1ccc(Nc2ncc(F)c(Nc3ccc(CCCCO)cc3)n2)cc1 [VI-88, N2-(4-Aminosulfonylphenyl)-5-fluoro-N4-[4-(4-hydroxybutyl)phenyl]-2,4-pyrimidinediamine] | 0.216 µM |  |
| Cc1ccc2cc(Nc3nc(Nc4ccc(C)c(S(N)(=O)=O)c4)ncc3F)ccc2n1 [VII-71, N2-(3-Aminosulfonyl-4-methylphenyl)-5-fluoro-N4-(2-methylquinolin-6-yl)-2,4-pyrimidinediamine] | 0.149 µM |  |
| Cc1ccc(Nc2ncc(F)c(Nc3ccc4oc(C#N)cc4c3)n2)cc1S(N)(=O)=O [VII-53, N2-(3-Aminosulfonyl-4-methylphenyl)-N4-(2-cyanobenzofuran-5-yl)-5-fluoro-2,4-pyrimidinediamine] | 0.168 µM |  |
| NS(=O)(=O)c1ccc(Nc2ncc(F)c(Nc3ccc(CCCO)cc3)n2)cc1 [VI-85, N2-(4-Aminosulfonylphenyl)-5-fluoro-N4-[4-(3-hydroxypropyl)phenyl]-2,4-pyrimidinediamine] | 0.129 µM |  |
| Cc1ccc(Nc2ncc(F)c(Nc3ccc(CCCF)cc3)n2)cc1S(N)(=O)=O [VI-84, N2-(3-Aminosulfonyl-4-methylphenyl)-5-fluoro-N4-[4-(3-fluoropropyl)phenyl]-2,4-pyrimidinediamine] | 0.132 µM |  |

More lines, now with the values ahead:

| IC50 [1] | IC50 [2] | SMILES |
| --- | --- | --- |
| 0.0698 µM | 1.42 µM | N#CCN1C(=O)CSc2ccc(Nc3nc(Nc4ccc(S(N)(=O)=O)cc4)ncc3F)cc21 [Compound V-11, N2-(4-Aminosulphonylphenyl)-5-fluoro-N4-(3-oxo-4-cyanomethyl-benzo[1,4]thiazin-6-yl)-2,4-pyrimidinediamine] |
| 0.0574 µM | 1.09 µM | Cc1ccc(Nc2ncc(F)c(Nc3ccc4[nH]cc(CC#N)c4c3)n2)cc1S(N)(=O)=O [IX-14, N2-(3-Aminosulfonyl-4-methylphenyl)-N4-(3-cyanomethyl-1H-indol-5-yl)-5-fluoro-2,4-pyrimidinediamine] |
| 0.0444 µM | 0.257 µM | COc1ccc(Nc2nc(Nc3cccc(S(N)(=O)=O)c3)ncc2Br)cc1Cl [VI-26, N2-(3-aminosulfonylphenyl)-5-bromo-N4-(3-chloro-4-methoxyphenyl)-2,4-pyrimidinediamine] |
| 0.0563 µM | 0.565 µM | C#CCOc1ccc(Nc2nc(Nc3ccc(C)c(S(N)(=O)=O)c3)ncc2F)cc1 [VI-53, N2-(3-Aminosulfonyl-4-methylphenyl)-5-fluoro-N4-[4-(prop-2-ynyloxy)phenyl]-2,4-pyrimidinediamine] |
| 0.0291 µM | 0.62 µM | Cc1ccc(Nc2ncc(F)c(Nc3ccc4c(c3)N(CC#N)C(=O)CO4)n2)cc1S(N)(=O)=O [Compound V-8, N2-(3-Aminosulphonyl-4-methylphenyl)-5-fluoro-N4-[3-oxo-4-cyanomethyl-benz[1,4]oxazin-6-yl]-2,4-pyrimidinediamine] |
| 0.0588 µM | 0.821 µM | N#CCN1C(=O)COc2ccc(Nc3nc(Nc4cccc(S(N)(=O)=O)c4)ncc3F)cc21 [Compound V-7, N2-(3-Aminosulphonylphenyl)-5-fluoro-N4-(3-oxo-4-cyanomethyl-benz[1,4]oxazin-6-yl]-2,4-pyrimidinediamine] |
| 0.0375 µM | 7.7 µM | Cc1ccc(Nc2ncc(F)c(Nc3ccc(Cl)c(Cl)c3)n2)cc1S(N)(=O)=O [VI-6, N2-(3-Aminosulfonyl-4-methylphenyl)-N4-(3,4-dichlorophenyl)-5-fluoro-2,4-pyrimidinediamine] |
| 0.0795 µM | 1.77 µM | C#CCn1ccc2cc(Nc3nc(Nc4cccc(S(N)(=O)=O)c4)ncc3F)ccc21 [IX-2, N2-(3-Aminosulfonylphenyl)-5-fluoro-N4-[1-(propyn-3-yl)indol-5-yl]-2,4-pyrimidinediamine] |
| 0.076 µM |  | C#CCOc1ccc(Nc2nc(Nc3ccc(C)c(S(N)(=O)=O)c3)ncc2F)cc1Cl [VI-59, N2-(3-Aminosulfonyl-4-methylphenyl)-N4-[3-chloro-4-(prop-2-ynyloxy)phenyl]-5-fluoro-2,4-pyrimidinediamine] |
| 0.0692 µM |  | COc1c(C)cc(Nc2ncc(F)c(Nc3ccc(C(C)(C)C)cc3)n2)cc1S(N)(=O)=O [VI-37, N2-(3-Aminosulfonyl-4-methoxy-5-methylphenyl)-N4-(4-tert-butylphenyl)-5-fluoro-2,4-pyrimidinediamine] |
